Drawing on US20260028326A1, “COMPOUND BASED ON ISOINDOLINE-SUBSTITUTED GLUTARIMIDE BACKBONE AND USE THEREOF” (GLUETACS THERAPEUTICS (SHANGHAI) CO., LTD., priority 2022, published 2026), this text covers IC50 for 24 molecules.

human Cereblon WT GST-tagged protein, sequence (Q96SW2 whole entry): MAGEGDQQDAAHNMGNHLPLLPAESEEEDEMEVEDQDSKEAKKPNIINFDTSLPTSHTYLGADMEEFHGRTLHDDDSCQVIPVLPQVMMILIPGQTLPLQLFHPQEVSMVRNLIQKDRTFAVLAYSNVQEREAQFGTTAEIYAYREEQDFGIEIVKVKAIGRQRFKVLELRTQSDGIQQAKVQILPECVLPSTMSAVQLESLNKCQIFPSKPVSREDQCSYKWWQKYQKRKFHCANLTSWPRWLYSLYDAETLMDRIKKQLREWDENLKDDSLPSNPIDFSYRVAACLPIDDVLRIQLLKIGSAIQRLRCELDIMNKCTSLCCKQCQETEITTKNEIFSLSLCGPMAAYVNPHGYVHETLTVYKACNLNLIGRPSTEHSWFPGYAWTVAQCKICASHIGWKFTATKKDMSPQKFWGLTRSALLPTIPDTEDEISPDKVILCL

This experiment concerns the target human Cereblon WT GST-tagged protein (Homo sapiens (Human), UniProt Q96SW2). The experiment can be described thus: CRBN-binding affinity, HTRF (CEREBLON BINDING kit). As to the method:
The CEREBLON BINDING kits (specification: 10,000 tests; product number: Catalog #64BDCRBNPEH; CISBIO company) was used to determine the CRBN binding ability of the compounds to be tested through a HTRF method (homogeneous time-resolved fluorescence). The specific methods are as follows: • 1. […] Then, 2.5 μL of human Cereblon WT GST-tagged protein solution was added to each well. Finally, 5 μL of the thoroughly mixed Thalidomide-Re reagent and GST Eu antibody working solution were added to each of the aforementioned wells. […] The blank control wells were sequentially added with 2.5 μL of diluent #9 (1×) solution, 2.5 μL of PROTAC binding buffer, and 5 μL of thoroughly mixed Thalidomide-Re reagent and GST Eu antibody working solution. • 4.
The corresponding CRBN binding inhibition rate was calculated using the following method: […]
A general note: Time-resolved FRET reads energy transfer from a long-lived donor to a nearby acceptor.
For the molecule `CC1(C)CCC(CN2C3CC2CN(Cc2cc4c(cc2F)C(=O)N(C2CCC(=O)NC2=O)C4)C3)=C(c2ccc(Cl)cc2)C1` (stereo not drawn) [GT-05530, 3-(5-((6-((4′-chloro-5,5-dimethyl-3,4,5,6-tetrahydro-[1,1′-biphenyl]-2-yl)methyl)-3,6-diazabicyclo[3.1.1]heptan-3-yl)methyl)-6-fluoro-1-oxoisoindolin-2-yl)piperidine-2,6-dione], the concentration for half-maximal inhibition (IC50) (commonly the concentration that inhibits the measured activity by half) was 1200 nM.
The figure for `CC1(C)CCC(C(=O)N2CC3CCC2CN3C(=O)c2ccc3c(c2)CN(C2CCC(=O)NC2=O)C3=O)=C(c2ccc(Cl)cc2)C1` (stereo not drawn) [GT-05663, 3-(5-(5-(4′-chloro-5,5-dimethyl-3,4,5,6-tetrahydro-[1,1′-biphenyl]-2-carbonyl)-2,5-diazabicyclo[2.2.2]octane-2-carbonyl)-1-oxoisoindolin-2-yl)piperidine-2,6-dione] is 1090 nM.
Regarding `O=C1CCC(N2Cc3cc(CN4C5CC4CN(C(=O)C4=C(c6ccc(F)cc6)CCCC4)C5)cc(F)c3C2=O)C(=O)N1` (stereo not drawn) [GT-05477, 3-(7-fluoro-5-((3-(4′-fluoro-3,4,5,6-tetrahydro-[1,1′-biphenyl]-2-carbonyl)-3,6-diazabicyclo[3.1.1]heptan-6-yl)methyl)-1-oxoisoindolin-2-yl)piperidine-2,6-dione], the IC50 worked out at 660 nM.
The figure for `O=C1CCC(N2Cc3cc(CN4C5CC4CN(C(=O)C4=C(c6ccc(F)cc6)CCCC4)C5)c(F)cc3C2=O)C(=O)N1` (stereo not drawn) [GT-05476, 3-(6-fluoro-5-((3-(4′-fluoro-3,4,5,6-tetrahydro-[1,1′-biphenyl]-2-carbonyl)-3,6-diazabicyclo[3.1.1]heptan-6-yl)methyl)-1-oxoisoindolin-2-yl)piperidine-2,6-dione] is 1200 nM; for `CC1(C)CCC(CN2CCC3(CC2)CN(C(=O)c2ccc4c(c2)CN(C2CCC(=O)NC2=O)C4=O)C3)=C(c2ccc(F)cc2)C1` (stereo not drawn) [GT-05507, 3-(5-(7-((4′-fluoro-5,5-dimethyl-3,4,5,6-tetrahydro-[1,1′-biphenyl]-2-yl)methyl)-2,7-diazaspiro[3.5]nonane-2-carbonyl)-1-oxoisoindolin-2-yl)piperidine-2,6-dione] it is 1240 nM; for `O=C1CCC(N2Cc3cc(C(=O)N4CC5CC(C4)N5Cc4ccccc4-c4ccc(Cl)cc4)ccc3C2=O)C(=O)N1` (stereo not drawn) [GT-05705, 3-(5-(6-((4′-chloro-[1,1′-biphenyl]-2-yl)methyl)-3,6-diazabicyclo[3.1.1]heptane-3-carbonyl)-1-oxoisoindolin-2-yl)piperidine-2,6-dione] it is 880 nM.
The molecule `CC1(C)CCC(CN2CC3CC(C2)N3Cc2cc3c(cc2F)C(=O)N(C2CCC(=O)NC2=O)C3)=C(c2ccc(Cl)cc2)C1` (stereo not drawn) [GT-05367, 3-(5-((3-((4′-chloro-5,5-dimethyl-3,4,5,6-tetrahydro-[1,1′-biphenyl]-2-yl)methyl)-3,6-diazabicyclo[3.1.1]heptan-6-yl)methyl)-6-fluoro-1-oxoisoindolin-2-yl)piperidine-2,6-dione] gave an IC50 of 400 nM. Compared with the last molecule, the IC50 is about 2.2-fold lower.
With `CC1(C)CCC(CN2CCC(Cc3ccc4c(c3)CN(C3CCC(=O)NC3=O)C4=O)CC2)=C(c2ccc(Cl)cc2)C1` (stereo not drawn) [GT-03368, 3-(5-((1-((4′-chloro-5,5-dimethyl-3,4,5,6-tetrahydro-[1,1′-biphenyl]-2-yl)methyl)piperidin-4-yl)methyl)-1-oxoisoindolin-2-yl)piperidine-2,6-dione] the figure was 1380 nM.
With `CC1(C)CCC(C(=O)N2CCN(Cc3ccc4c(c3F)CN(C3CCC(=O)NC3=O)C4=O)CC2)=C(c2ccc(Cl)cc2)C1` (stereo not drawn) [GT-05525, 3-(5-((4-(4′-chloro-5,5-dimethyl-3,4,5,6-tetrahydro-[1,1′-biphenyl]-2-carbonyl)piperazin-1-yl)methyl)-4-fluoro-1-oxoisoindolin-2-yl)piperidine-2,6-dione] the figure was 710 nM; with `CC1(C)CCC(CN2C3CC2CN(Cc2cc(F)c4c(c2)CN(C2CCC(=O)NC2=O)C4=O)C3)=C(c2ccc(Cl)cc2)C1` (stereo not drawn) [GT-05531, 3-(5-((6-((4′-chloro-5,5-dimethyl-3,4,5,6-tetrahydro-[1,1′-biphenyl]-2-yl)methyl)-3,6-diazabicyclo[3.1.1]heptan-3-yl)methyl)-7-fluoro-1-oxoisoindolin-2-yl)piperidine-2,6-dione], 800 nM.
Consider `CC1(C)CCC(CN2C[C@H]3C[C@@H]2CN3C(=O)c2ccc3c(c2)CN(C2CCC(=O)NC2=O)C3=O)=C(c2ccc(Cl)cc2)C1` (stereo partly drawn) [GT-05441, 3-(5-((1R,4R)-5-((4′-chloro-5,5-dimethyl-3,4,5,6-tetrahydro-[1,1′-biphenyl]-2-yl)methyl)-2,5-diazabicyclo[2.2.1]heptane-2-carbonyl)-1-oxoisoindolin-2-yl)piperidine-2,6-dione], for which the concentration for half-maximal inhibition (IC50) worked out at 1570 nM.
With `CC1(C)CCC(CN2CCC(Nc3ccc4c(c3)CN(C3CCC(=O)NC3=O)C4=O)CC2)=C(c2ccc(Cl)cc2)C1` (stereo not drawn) [GT-05782, 3-(5-((1-((4′-chloro-5,5-dimethyl-3,4,5,6-tetrahydro-[1,1′-biphenyl]-2-yl)methyl)piperidin-4-yl)amino)-1-oxoisoindolin-2-yl)piperidine-2,6-dione] the figure was 1760 nM.
The figure for `CC1(C)CCC(C(=O)N2CC3CC(C2)N3C(=O)c2ccc3c(c2)CN(C2CCC(=O)NC2=O)C3=O)=C(c2ccc(Cl)cc2)C1` (stereo not drawn) [GT-05538, 3-(5-(3-(4′-chloro-5,5-dimethyl-3,4,5,6-tetrahydro-[1,1′-biphenyl]-2-carbonyl)-3,6-diazabicyclo[3.1.1]heptane-6-carbonyl)-1-oxoisoindolin-2-yl)piperidine-2,6-dione] is 1020 nM; for `O=C1CCC(N2Cc3cc(CN4C5CC4CN(Cc4ccccc4-c4ccc(Cl)cc4)C5)cc(F)c3C2=O)C(=O)N1` (stereo not drawn) [GT-05610, 3-(5-((3-((4′-chloro-[1,1′-biphenyl]-2-yl)methyl)-3,6-diazabicyclo[3.1.1]heptan-6-yl)methyl)-7-fluoro-1-oxoisoindolin-2-yl)piperidine-2,6-dione] it is 640 nM; for `O=C1CCC(N2Cc3c(CN4CCC(Nc5ccccc5-c5ccc(Cl)cc5)CC4)cccc3C2=O)C(=O)N1` (stereo not drawn) [GT-04947, 3-(4-((4-((4′-chloro-[1,1′-biphenyl]-2-yl)amino)piperidin-1-yl)methyl)-1-oxoisoindolin-2-yl)piperidine-2,6-dione] it is 390 nM.
`O=C1CCC(N2Cc3cc(CN4C5CC4CN(C(=O)C4=C(c6ccc(F)cc6)CCCC4)C5)ccc3C2=O)C(=O)N1` (stereo not drawn) [GT-04169, 3-(5-((3-(4′-fluoro-3,4,5,6-tetrahydro-[1,1′-biphenyl]-2-carbonyl)-3,6-diazabicyclo[3.1.1]heptan-6-yl)methyl)-1-oxoisoindolin-2-yl)piperidine-2,6-dione] yielded a 50% inhibitory concentration (IC50) of 850 nM.
The figure for `CC1(C)CCC(C(=O)N2CCC(Cc3ccc4c(c3)CN(C3CCC(=O)NC3=O)C4=O)CC2)=C(c2ccc(F)cc2)C1` (stereo not drawn) [GT-05487, 3-(5-((1-(4′-fluoro-5,5-dimethyl-3,4,5,6-tetrahydro-[1,1′-biphenyl]-2-carbonyl)piperidin-4-yl)methyl)-1-oxoisoindolin-2-yl)piperidine-2,6-dione] is 650 nM.
The figure for `O=C1CCC(N2Cc3cc(CN4CC5CCC(C4)N5Cc4ccccc4-c4ccc(Cl)cc4)ccc3C2=O)C(=O)N1` (stereo not drawn) [GT-05618, 3-(5-((8-((4′-chloro-[1,1′-biphenyl]-2-yl)methyl)-3,8-diazabicyclo[3.2.1]octan-3-yl)methyl)-1-oxoisoindolin-2-yl)piperidine-2,6-dione] is 580 nM; for `O=C1CCC(N2Cc3cc(CN4CC5CCC4CN5Cc4ccccc4-c4ccc(Cl)cc4)ccc3C2=O)C(=O)N1` (stereo not drawn) [GT-05619, 3-(5-((5-((4′-chloro-[1,1′-biphenyl]-2-yl)methyl)-2,5-diazabicyclo[2.2.2]octan-2-yl)methyl)-1-oxoisoindolin-2-yl)piperidine-2,6-dione] it is 590 nM; for `CC1(C)CCC(C(=O)N2CCN(Nc3ccc4c(c3)CN(C3CCC(=O)NC3=O)C4=O)CC2)=C(c2ccc(Cl)cc2)C1` (stereo not drawn) [GT-05417, 3-(5-((4-(4′-chloro-5,5-dimethyl-3,4,5,6-tetrahydro-[1,1′-biphenyl]-2-carbonyl)piperazin-1-yl)amino)-1-oxoisoindolin-2-yl)piperidine-2,6-dione] it is 1480 nM.
The molecule `O=C1CCC(N2Cc3cc(NC4CN(Cc5ccccc5-c5ccc(Cl)cc5)C4)c(F)cc3C2=O)C(=O)N1` (stereo not drawn) [GT-04204, 3-(5-((1-((4′-chloro-[1,1′-biphenyl]-2-yl)methyl)azetidin-3-yl)amino)-6-fluoro-1-oxoisoindolin-2-yl)piperidine-2,6-dione] gave an IC50 of 520 nM.
With `CC1(C)CCC(CN2CC(O)(C(O)c3ccc4c(c3)CN(C3CCC(=O)NC3=O)C4=O)C2)=C(c2ccc(Cl)cc2)C1` (stereo not drawn) [GT-05427, 3-(5-((1-((4′-chloro-5,5-dimethyl-3,4,5,6-tetrahydro-[1,1′-biphenyl]-2-yl)methyl)-3-hydroxyazetidin-3-yl)(hydroxy)methyl)-1-oxoisoindolin-2-yl)piperidine-2,6-dione] the figure was 950 nM.
For the molecule `CC1(C)CCC(CN2C3CCC2CN(Cc2cc(F)c4c(c2)CN(C2CCC(=O)NC2=O)C4=O)C3)=C(c2ccc(Cl)cc2)C1` (stereo not drawn) [GT-05536, 3-(5-((8-((4′-chloro-5,5-dimethyl-3,4,5,6-tetrahydro-[1,1′-biphenyl]-2-yl)methyl)-3,8-diazabicyclo[3.2.1]octan-3-yl)methyl)-7-fluoro-1-oxoisoindolin-2-yl)piperidine-2,6-dione], the 50% inhibitory concentration (IC50) was 1050 nM. This IC50 and that of the molecule before are within 1.5-fold of each other.
Molecule `O=C1CCC(N2Cc3c(CN4CCN(C(=O)c5ccccc5-c5ccc(Cl)cc5)CC4)cccc3C2=O)C(=O)N1` (stereo not drawn) [GT-05701, 3-(4-((4-(4′-chloro-[1,1′-biphenyl]-2-carbonyl)piperazin-1-yl)methyl)-1-oxoisoindolin-2-yl)piperidine-2,6-dione] displayed an IC50 of 1800 nM. Against the preceding molecule, the IC50 is about 1.7-fold higher.
